tested on: not listed separately; assay: Selectivity for alpha-7 over alpha4beta2

| SMILES | Selectivity ratio |
| --- | --- |
| C[N+](C)(C)CCOc1cccnc1 | 560 |

target: Neuronal acetylcholine receptor subunit alpha-7 (Rattus norvegicus, UniProt Q05941); assay: Displacement of [125I]iodo-MLA from alpha-7 nAChR in rat cerebral cortex; format: tissue-based
Sequence (Q05941 whole entry): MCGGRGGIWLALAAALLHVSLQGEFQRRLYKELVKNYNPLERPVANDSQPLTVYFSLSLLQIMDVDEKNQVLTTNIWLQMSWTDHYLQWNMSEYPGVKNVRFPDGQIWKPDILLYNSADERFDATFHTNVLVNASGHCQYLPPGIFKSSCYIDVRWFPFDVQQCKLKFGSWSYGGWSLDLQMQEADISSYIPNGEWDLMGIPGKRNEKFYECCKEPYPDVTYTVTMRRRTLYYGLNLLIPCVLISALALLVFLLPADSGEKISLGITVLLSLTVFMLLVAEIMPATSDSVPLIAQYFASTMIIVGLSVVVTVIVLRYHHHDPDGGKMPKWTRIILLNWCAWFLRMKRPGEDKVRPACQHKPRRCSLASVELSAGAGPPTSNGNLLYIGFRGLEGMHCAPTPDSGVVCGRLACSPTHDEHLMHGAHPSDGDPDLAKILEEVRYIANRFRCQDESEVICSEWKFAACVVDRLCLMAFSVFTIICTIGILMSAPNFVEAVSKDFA

| SMILES | Ki [µM] |
| --- | --- |
| CN(C)CCOc1ccc(CCc2ccccc2)nc1 | > 10 |
| CNCCOc1cccnc1 | > 10 |
| CN(C)CCOc1ccc(CCc2ccccc2)cc1 | > 10 |
| C[N+](C)(C)CCOc1ccccc1 | 1.1 |
| CN(C)CCOc1ccccc1 | > 10 |
| C[N+](C)(C)CCOc1ccc(/C=C/c2ccccc2)nc1 | 1.25 |
| C[N+](C)(C)CCOc1ccc(/C=C/c2ccccc2)cc1 | 2.17 |
| CN1CCCC1c1ccc(CCc2ccccc2)nc1 (racemic) | > 10 |
| C[N+](C)(C)CCOc1cccnc1 | 0.28 |
| C[N+](C)(C)CCCOc1cccnc1 | > 10 |
| CNCCCc1cccnc1 | > 10 |
| CNC/C=C/c1cccnc1 | > 10 |
| C[N+](C)(C)CCOc1ccc(CCc2ccccc2)nc1 | 4.32 |
| CN(C)CCOc1cccnc1 | > 10 |
| CN(C)CCOc1ccc(/C=C/c2ccccc2)nc1 | > 10 |
| CCN(C)CCOc1cccnc1 | > 10 |
| C[N+](C)(C)CCOc1ccc(CCc2ccccc2)cc1 | 7.5 |
| CNC/C=C\c1cccnc1 | > 10 |
| CN(C)CCOc1ccc(/C=C/c2ccccc2)cc1 | > 10 |

Source: ChEMBL document CHEMBL1146864, “Aryloxyethylamines: binding at alpha7 nicotinic acetylcholine receptors” (Bioorg Med Chem Lett, 2006)
